Measurements from patent US6743917B2, “Camptothecin analogs and methods of preparation thereof” (University of Pittsburgh, priority 1993, dated 2004).
Read-outs that look alike come from different tables or passages of the source.

Assays:
[1] = test system: DC-3F (hamster lung) cells; assay: Cytotoxicity assay, DC-3F cells (sulforhodamine B protein content); assay type: cell-based; conditions: Mesocricetus auratus, DC3F; DC-3F cells, sulforhodamine B; read-out: Inhibition of cancer cell growth IC50, DC-3F
Experimental: (§1) Cultures were fixed with trichloroacetic acid and then stained for 30 minutes with 0.4% sulforhodamine B dissolved in 1% acetic acid. Unbound dye was removed by acetic acid washes, and the protein-bound dye was extracted with an unbuffered Tris base [tris(hydroxy-methyl)aminomethan] for determination of absorbance at 570 nm in a 96-well microplate reader. The experiments were carried out in duplicate using five to six concentrations of the drugs tested. Data were analyzed via computer software.

[2] = test system: 833K (human teratocarcinoma) cells; assay: Cytotoxicity assay, 833K cells (sulforhodamine B protein content); assay type: cell-based; conditions: Homo sapiens; 833K cells, sulforhodamine B; read-out: Inhibition of cancer cell growth IC50, 833K
Experimental: as §1

[3] = test system: HL-60 (human promyelocytic leukemic) cells; assay: Cytotoxicity assay, HL-60 cells (XTT-microculture tetrazolium assay); assay type: cell-based; conditions: Homo sapiens; HL-60 cells, 72 hr incubation, XTT; read-out: Inhibition of cancer cell growth IC50, HL-60
Experimental: The camptothecin derivatives were evaluated for their cytotoxic effects on the growth of HL-60 (human promyelocytic leukemic), 833K (human teratocarcinoma) and DC-3F (hamster lung) cells in vitro. The cells were cultured in an initial density of […]. They were maintained in a 5% CO2 humidified atmosphere at 37° C. in RPMI-1640 media (GIBCO-BRL Grand Island, N.Y.) containing penicillin 100 μ/ml)/streptomycin (100 ^μg/ml) (GIBCO-BRL) and 10% heat inactivated fetal bovine serum. The assay was performed in duplicate in 96-well microplates. The cytotoxicity of the compounds toward HL-60 cells following 72 hr incubation was determined by XTT-microculture tetrazolium assay. Scudiero, D. A., et al., Cancer Res., 48, 4827 (1988), the disclosure of which is incorporated herein by reference. 2′, 3′-bis(-methoxy-4-nitro-5-sulfheny)-5-[(phenylamino)carbonyl]-2H-tetrazolium hydroxide (XTT) was prepared at 1 mg/ml in prewarmed (37° C.) medium without serum. Phenazine methosulfate (PMS) and fresh XTT were mixed together to obtain 0.075 mM PMS-XTT solution (25 ^μl of the stock 5 mM PMS was added per 5 ml of 1 mg/ml XTT). Fifty ^μl of this mixture was added to each well of the cell culture at the end of 72 hr incubation. After incubation at 37° C. for 4 hr., absorbance at 450 nm and 630 nm was measured with a microplate reader (EL340, Bio-Tek Instruments, Inc., Winooski, Vt.).

Lewis lung carcinoma = assay: Antitumor activity in vivo, Lewis lung carcinoma; conditions: B6D2F1 mice, intraperitoneously twice daily for five days
Experimental: (§2) Antitumor activities of camptothecin derivatives were tested in B6D2F1 mice bearing sarcoma-180 or Lewis lung murine solid tumor. For S-180, 3×10^6 cells were innoculated subcutaneously on […]. Antitumor treatment started on day 1 intraperitoneously twice daily for five days. Tumor volumes on day 7 and day 14 were measured. Average tumor volumes were described as the ratio of treated versus untreated control (T/C). The control (treated with DMSO vehicle only) tumor volumes for day 7 and day 14 were 0.11 cm^3 and 0.61 cm^3, respectively. The T/C camptothecin is designated with “+++.” An increment or decrement of 10% as compared to the camptothecin T/C on day 14 at 2 mg/kg dosage is designated with increase or decrease of one “+” unit, respectively.
For Lewis lung carcinoma, tumor cells (1×10^6) were inoculated subcutaneously on day 0 and treatment started on day 1, intraperitoneously twice daily for five days. The grading of effects was as described above.

[4] = human
in vitro = conditions: human
sarcoma-180 = assay: Antitumor activity in vivo, sarcoma-180; conditions: B6D2F1 mice, intraperitoneously twice daily for five days, several equivalent doses
Experimental: as §2

[5] = Kinetics of lactone ring opening in PBS buffer (HPLC); assay type: physicochemical; conditions: for % Lactone at Equilibrium: PBS; for half-life: buffer, pH 7.4
Experimental: Kinetics of Lactone Ring Opening. […] Mi and Burke (1994), supra.
FIG. 21 summarizes the stability of DB172 in phosphate buffered saline (PBS) buffer, pH 7.4, at physiological temperature. Shown in the figure are plots of lactone fraction as a function of time for DB172 at different concentrations. Drug was added to solution from a concentrated DMSO stock solution such that the volumes of DMSO were very small (less than 0.5%) relative to the volume of water. […] At the more dilute drug concentrations the drug hydrolyzes as previously observed for other camptothecins containing the ^α-hydroxy-^δ-lactone moiety.

[6] = Equilibrium binding to DMPG small unilamellar vesicles (fluorescence anisotropy titration); conditions: PBS buffer at PH 7.4 and 37° C.
[7] = Kinetics of lactone ring opening in PBS containing HSA (HPLC); conditions: for % Lactone at Equilibrium / t1/2: HSA (PBS containing 30 mg/ml HSA)
[8] = Self-association in aqueous solution (fluorescence intensity with time); assay type: physicochemical; conditions: lactone drug forms added to solution, time=0
Experimental: FIG. 22 summarizes the dependence of the fluorescence intensity of DB172 as a function of time and pH. In these experiments DB172 is added to solution as the lactone form. At low pH where the drug remains in the lactone form, the change in intensity with time is the lowest. At pH 10, where the conditions are such that the lactone more readily hydrolyzes and forms carboxylate, a significant change in fluorescence intensity is observed. It appears that a pH 10 nonfluorescent micellular aggregates composed of lactone disassemble and form open-ring carboxylate forms that tend to exist in solution as monomeric fluorescent species.
FIG. 23 explores the fluorescence intensity of DB172 as a function of concentration. Following the addition of low concentration of lactone drug to solution, the change in fluorescence signal is the greatest whereas at high drug concentration (10 ^μM) the fluorescence intensity changes are minimal. It is believed that a low concentration the micellular aggregates of DB172 displaying reduced fluorescence can disassemble and form fluorescent carboxylate species, but at higher drug concentration the equilibrium favors that the agent remains in the aggregated or reduced fluorescence state. […] Once again this decrease in fluorescence that occurs at reduced pH appear to be due to the formation of lactone aggregates of reduced fluorescence quantum yield.
FIGS. 21 through 24 are consistent with the unusual ability of DB172 lactone to self-associate and form micelles at micromolar drug concentrations. The micellular DB172 aggregates display a reduced fluorescence. If conditions allow for hydrolysis to occur such that carboxylate forms, there is an increase in the fluorescence intensity of the sample. FIG. 25 compares the relative change in the fluorescence emission of a sample following addition of lactone drug forms to solution. In these experiments the values for each drug are normalized to a value of 1 at time equals to zero, and the ability of the various analogs to disassociate in the event the drugs are aggregated at time=0 is monitored with time. […]

[9] = Kinetics of lactone ring opening in whole human blood (HPLC);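 further: hydrolytic opening of the camptothecin lactone ring followed over time by quantitative C18 reversed-phase HPLC in human whole blood at physiological temperature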
[10] = Equilibrium binding to DMPC small unilamellar vesicles (fluorescence anisotropy titration); conditions: for KDMPC overall association constant: PBS buffer at PH 7.4 and 37° C.; for K value for DMPC, fold greater than camptothecin: relative to camptothecin
[11] = test system: MDA-MB-435 tumorigenic metastatic human breast cancer cells; assay: cells; assay type: cell-based; conditions: for IC50: Homo sapiens, MDA-MB-435, 72 h, read-out: IC50 (w/o HSA)
Experimental: Cells. […] The cells were exposed to a range of drug concentrations for 72 hr exposure periods and then viability was assessed using a sulphorrhodamine B (SRB) assay. SRB assays were performed using a standard assay.
Sulphorhodamine B (SRB) assay was used. This assay measures the total protein levels in the living cells. Proteins from dead cells are lysed and removed in the washing step before TCA fixation. However, it is possible that cells in the early stage of death still have their membrane integrity and therefore retain the protein contents inside. As a result, the optical density at 490 nm can sometimes be overestimated and the cytotoxicity underestimated. […] The SRB assay is now a well regarded assay and was recently approved by NCI as a standard assay for anticancer drug screening.

[12] = cited from earlier work
[13] = whole human blood, earlier studies; cited from earlier work
[14] = target: human serum albumin (HSA) (Homo sapiens, UniProt P02768); conditions: PBS at pH 7.4; cited from earlier work
Chain of human serum albumin (HSA) (P02768 25-609): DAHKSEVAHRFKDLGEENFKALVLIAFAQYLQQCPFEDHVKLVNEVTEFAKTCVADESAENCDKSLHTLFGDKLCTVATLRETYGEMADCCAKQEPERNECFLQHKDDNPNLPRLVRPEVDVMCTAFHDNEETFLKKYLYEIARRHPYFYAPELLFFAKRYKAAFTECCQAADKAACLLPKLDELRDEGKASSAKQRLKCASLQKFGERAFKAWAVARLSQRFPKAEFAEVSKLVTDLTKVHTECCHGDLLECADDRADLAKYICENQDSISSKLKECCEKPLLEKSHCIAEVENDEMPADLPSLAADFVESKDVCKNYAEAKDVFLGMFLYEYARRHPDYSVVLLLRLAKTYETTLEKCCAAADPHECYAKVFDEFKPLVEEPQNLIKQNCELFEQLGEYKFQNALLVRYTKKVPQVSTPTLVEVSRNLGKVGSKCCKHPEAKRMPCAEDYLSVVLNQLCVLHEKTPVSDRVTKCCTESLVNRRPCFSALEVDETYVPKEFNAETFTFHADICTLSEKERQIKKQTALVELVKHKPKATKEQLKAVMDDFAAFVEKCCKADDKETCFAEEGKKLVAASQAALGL

[15] = earlier studies; cited from earlier work
[16] = Whole Blood, physiological temperature
[17] = human plasma, pH 7.4 and 37° C.

SMILES | IC50 [1] [nM] | IC50 [2] [nM] | IC50 [3] [nM] | % Lactone at Equilibrium [5] | half-life [5] [min] | KDMPG overall association constant [6] [M⁻¹] | % Lactone at Equilibrium [7] | t1/2 [7] [min] | self-association / aggregation state in solution [8] | % Lactone at Equilibrium [9, 16] | KDMPC overall association constant [10] [M⁻¹] | K value for DMPC, fold greater than camptothecin [10] [fold] | IC50 [11] [nM] | half-life (in vitro; whole blood) [min] | other results
CCC1(O)C(=O)OCc2c1cc1n(c2=O)Cc2c-1nc1cc(F)ccc1c2[Si](C)(C)C (stereo in doubt) [Example 7, (20S)-11-fluoro-7-trimethylsilylcamptothecin] | 2 | 0.92 | 0.75 |  |  |  |  |  |  |  |  |  |  |  | similar antitumor effect (tumor volume reduction) to camptothecin at x-fold lower doses (Lewis lung carcinoma): 4 fold
CC[C@@]1(O)C(=O)OCc2c1cc1n(c2=O)Cc2c-1nc1ccccc1c2[Si](C)(C)C [Example 1, (20S)-7-trimethylsilylcamptothecin] | 4.2 | 5.6 | 3.8 | 11.1 +/− 0.1% | 34.6 |  |  |  |  |  |  |  |  |  | % Lactone at Equilibrium [4]: 23.7 +/− 0.0%; half-life (in vitro; blood): 54.6 min; activity against sarcoma 180 compared with camptothecin (tumor volume reduction) (sarcoma-180): better activity than camptothecin
CC[C@@]1(O)C(=O)OCc2c1cc1n(c2=O)Cc2c-1nc1ccccc1c2CC[Si](C)(C)C [DB-172, (20S)-7-[(2-Trimethylsilyl)ethyl]camptothecin] |  |  |  |  |  | 10600 | 4.3 +/− 1.0% | 86.1 ± 10.3 | self-associates to an exceptionally high degree | 24.1 +/− 2.6% | 10500 | ~100 |  |  | t1/2 [9, 16]: 106.6 ± 10.8 min; lactone ring stability at high drug concentrations ([5]; PBS buffer, pH 7.4, physiological temperature): marked stabilization of the lactone ring
CC[C@@]1(O)C(=O)OCc2c1cc1n(c2=O)Cc2c-1nc1ccc(N)cc1c2CC[Si](C)(C)C [DB-173] |  |  |  | 11.9 +/− 0.3% | 45.3 | 5800 |  |  | much more likely to be found in solution as monomeric drug relative to DB172 |  | 5800 | ~58 | 4 | 69 | effect of 1 mg/ml HSA on the cytotoxic activity ([11]; MDA-MB-435 cells): no effect; half-life ([7]; human, PBS containing 30 mg/ml HSA, pH 7.4): 49 min
CC[C@@]1(O)C(=O)OCc2c1cc1n(c2=O)Cc2cc3ccccc3nc2-1 [CPT, (20S)-Camptothecin, reference compound] | 6 to 9 | 10 | 5 | 17 +/− 2.0% |  | 100 | <0.5% | 11.9 ± 0.3 |  |  | 100 |  | 8 | 21.6 | % lactone at equilibrium in human plasma [12, 17]: 0.2%; t1/2 of lactone opening in human plasma [12, 17]: 11 min; t1/2 of lactone in whole blood [13]: 22 min; affinity of HSA for the carboxylate form, fold higher than for the lactone form [14]: 200 fold; % Lactone at Equilibrium ([9]; Whole Blood, physiological temperature, listed as Camptothecin): 5.3 +/− 0.6%; % Lactone at Equilibrium ([9]; Whole Blood, physiological temperature, listed as camptothecin): 5.3%; lactone level at equilibrium in whole blood, fold greater than 9-aminocamptothecin ([9]; relative to 9-aminocamptothecin): approximately 10 fold
CC[C@@]1(O)C(=O)OCc2c1cc1n(c2=O)Cc2cc3c(N)cccc3nc2-1 [9-aminocamptothecin] |  |  |  |  |  |  |  |  |  | < 0.3% |  |  |  |  | fraction converted to carboxylate in plasma ([12]; plasma): > 99.5%; fraction hydrolyzed in PBS solution containing HSA [15]: > 97%
